# According to patent US20110319461A1, “NOVEL SALTS, POLYMORPHS, AND SYNTHETIC PROCESSES REGARDING IMIDAZOLE DERIVATIVE” (Ore Pharmaceuticals Inc., priority 2010, published 2011):
# Like-named read-outs stand apart in the source and are kept apart here.
# Assays:
# [1] = Storage stability of the drug substance; assay type: physicochemical
# [2] = test system: acute dextran sodium sulfate-induced colitis in mice; conditions: as reported by Byrnes et al., cited from earlier work
# ACE = ACE (Homo sapiens, UniProt P12821); conditions: per Dales et al.; read-out: IC50 against ACE (selectivity); cited from earlier work
# CPDA = target: T1, CPDA (Bos taurus, UniProt P00730); conditions: per Dales et al.; read-out: IC50 against CPDA (selectivity); cited from earlier work
# T1 sequence (P00730 111-419): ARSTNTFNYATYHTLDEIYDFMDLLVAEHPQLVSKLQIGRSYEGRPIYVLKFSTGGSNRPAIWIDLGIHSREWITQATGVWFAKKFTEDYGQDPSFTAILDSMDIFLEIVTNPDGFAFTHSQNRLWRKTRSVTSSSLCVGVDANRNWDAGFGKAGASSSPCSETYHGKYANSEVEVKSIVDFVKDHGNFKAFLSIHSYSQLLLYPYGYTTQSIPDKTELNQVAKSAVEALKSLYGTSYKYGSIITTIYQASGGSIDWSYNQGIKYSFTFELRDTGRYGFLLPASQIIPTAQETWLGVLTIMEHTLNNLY
# [3] = test system: acute dextran sodium sulfate-induced colitis in mice; experiment: Acute dextran sodium sulfate (DSS)-induced colitis; assay type: in vivo; conditions: for DSS-induced colon shortening: high dose Compound (I) and sulfasalazine
# Text: 2-[1-(S)-carboxy-2(S)-[3-(3,5-dichloro-benzyl)-3H-imidazol-4-yl]-ethylamino]-4-methyl-pentanoic acid, herein also referred to as Compound (I), is described in U.S. Pat. No. 6,632,830, U.S. Pat. No. 7,045,532, and WO 00/066104, each herein incorporated by reference in their entirety. Additionally, Compound (I) is discussed in “Substrate-Based Design of the First Class of Angiotensin-Converting Enzyme-Related Carboxypeptidase (ACE2) Inhibitors”, Dales, N. A., et al., J. Amer. Chem. Soc., 2002, 124, 11852-11853, incorporated by reference. As reported by Byrnes et al., Effects of the ACE2 inhibitor GL1001 on acute dextran sodium sulfate-induced colitis in mice, Inflamm. […] Doses of Compound (I) ameliorated DSS-induced disease activity, including rectal prolapsed and intestinal bleeding. […] Compound (I) provides therapeutic potential for inflammatory bowel disease.
# Exposure to DSS prior to vehicle treatment (vehicle+DSS group) produced a time-dependent decrease in body weight that recovered by day 15. This body weight loss and recovery was similar in animals having received repeated doses of Compound (I) (300 mg/kg).
# Disease activity index (DAI), namely rectal prolapsed, stool consistency, and fecal occult blood) was assessed every other day throughout the experiment. By experimental day 7, significant DSS-induced disease began to emerge, and trends toward recovery were observed by day 11. Statistical analyses were conducted on data obtained on the days of peak severity: day 7 (presence of fecal blood and diarrhea) and day 9 (rectal prolapse). All DAI data were analyzed by one-way ANOVA. Compared to non-DSS controls, DSS treatment markedly elevated scores for fecal occult blood, stoll consistency, and rectal prolapsed. These effects were attenuated by Compound (I) (300 mg/kg).
# On experimental day 15, colon was obtained from each animal and length was measured. […] No effects of 30 or 100 mg/kg on DSS-induced colon shrinkage were observed (P>0.05 for all). Total histopathology score (inflammation+glandular epithelial loss+mucosal erosion) for each treatment group is represented with a maximum obtainable score of 15. One-way ANOVA indicated significant DSS_induced damage (vs. non-DSS control) in each region studied, with the most damage occurring in the distal colon.
# [4] = test system: NSAID-induced gastric damage in rats; experiment: NSAID-induced gastric damage; assay type: in vivo
# [5] = test system: upper gastrointestinal tract of the mouse; experiment: Anti-inflammatory effects in the upper gastrointestinal tract; assay type: in vivo
# ACE2 = ACE2 (Homo sapiens, UniProt Q9BYF1); conditions: cited from earlier work
# Water solubility = assay type: physicochemical
# [6] = profound effect in the distal segment
# ACE2, sequence (Q9BYF1 18-805): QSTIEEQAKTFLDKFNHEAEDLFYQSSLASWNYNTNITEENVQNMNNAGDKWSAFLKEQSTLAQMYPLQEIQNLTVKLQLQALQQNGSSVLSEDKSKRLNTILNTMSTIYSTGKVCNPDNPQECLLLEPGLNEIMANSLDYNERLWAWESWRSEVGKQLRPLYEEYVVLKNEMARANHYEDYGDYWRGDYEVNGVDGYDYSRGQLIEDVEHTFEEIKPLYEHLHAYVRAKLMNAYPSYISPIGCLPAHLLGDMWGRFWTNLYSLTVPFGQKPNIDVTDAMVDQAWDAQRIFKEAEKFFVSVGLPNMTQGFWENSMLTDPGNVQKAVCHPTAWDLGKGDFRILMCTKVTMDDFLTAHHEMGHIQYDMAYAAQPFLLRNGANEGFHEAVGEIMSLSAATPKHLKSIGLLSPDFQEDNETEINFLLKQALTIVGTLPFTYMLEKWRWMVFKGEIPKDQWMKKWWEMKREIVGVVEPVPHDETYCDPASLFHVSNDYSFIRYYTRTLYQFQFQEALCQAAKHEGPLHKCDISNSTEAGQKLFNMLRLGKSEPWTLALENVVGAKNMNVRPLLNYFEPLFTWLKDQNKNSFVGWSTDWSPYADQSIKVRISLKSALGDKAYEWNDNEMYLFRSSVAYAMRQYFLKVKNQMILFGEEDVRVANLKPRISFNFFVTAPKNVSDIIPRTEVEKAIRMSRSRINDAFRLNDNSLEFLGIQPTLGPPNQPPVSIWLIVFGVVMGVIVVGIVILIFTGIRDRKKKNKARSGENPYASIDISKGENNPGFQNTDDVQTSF
# ACE, sequence (P12821 1-732 isoform P12821-3): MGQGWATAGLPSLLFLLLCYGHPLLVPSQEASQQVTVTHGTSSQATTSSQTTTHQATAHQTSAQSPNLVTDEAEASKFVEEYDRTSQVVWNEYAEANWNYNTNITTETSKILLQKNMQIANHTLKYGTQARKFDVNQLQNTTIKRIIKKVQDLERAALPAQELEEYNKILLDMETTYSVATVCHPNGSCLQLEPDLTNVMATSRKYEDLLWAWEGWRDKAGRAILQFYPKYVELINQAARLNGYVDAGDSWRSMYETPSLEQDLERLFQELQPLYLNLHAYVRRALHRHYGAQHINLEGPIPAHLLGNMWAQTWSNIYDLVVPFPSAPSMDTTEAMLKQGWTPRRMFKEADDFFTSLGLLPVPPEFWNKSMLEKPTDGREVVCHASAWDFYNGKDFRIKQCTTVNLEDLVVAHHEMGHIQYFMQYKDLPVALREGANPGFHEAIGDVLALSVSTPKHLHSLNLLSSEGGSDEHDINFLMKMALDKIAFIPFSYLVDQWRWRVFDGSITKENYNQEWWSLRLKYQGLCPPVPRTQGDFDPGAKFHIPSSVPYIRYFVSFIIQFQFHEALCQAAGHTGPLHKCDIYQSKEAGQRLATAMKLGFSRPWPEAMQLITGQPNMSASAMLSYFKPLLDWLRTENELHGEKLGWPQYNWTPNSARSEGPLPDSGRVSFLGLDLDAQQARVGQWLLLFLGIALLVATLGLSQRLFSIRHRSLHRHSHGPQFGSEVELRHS
smiles,measurement,setting,value
"CC(C)C[C@H](N[C@@H](Cc1cncn1Cc1cc(Cl)cc(Cl)c1)C(=O)O)C(=O)O [Compound (I), 2-[1-(S)-carboxy-2(S)-[3-(3,5-dichloro-benzyl)-3H-imidazol-4-yl]-ethylamino]-4-methylpentanoic acid]",long-term stability / degradation,"[1]; ambient temperature and humidity, 7 years",no apparent degradation
same,"DSS-induced disease activity, including rectal prolapse and intestinal bleeding",[2],ameliorated
same,colon pathology,[2]; [6],markedly attenuated
same,myeloperoxidase activity,[2]; [6],markedly attenuated
same,IC50,ACE,> 50 µM
same,IC50,CPDA,> 50 µM
same,body weight recovery,"[3]; 30 mg/kg, by day 15",compete recovery by day 15
same,body weight loss and recovery compared with vehicle+DSS group,"[3]; 300 mg/kg repeated b.i.d., days 5-15",similar
same,"disease activity index (fecal occult blood, stool consistency, rectal prolapse) elevated by DSS","[3]; 300 mg/kg, day 7 and day 9",attenuated
same,DSS-induced damage in the distal colon (total histopathology score),"[3]; 300 mg/kg, day 15",significantly attenuated
same,body weight reduction,"[3]; 30 and 100 mg/kg, maximum effects on day 9",exhibited the largest weight reduction
same,effect on any DAI parameter,"[3]; 30 or 100 mg/kg, all P>0.05",no effects were observed
same,DSS-induced colon shrinkage,"[3]; day 15, 30 or 100 mg/kg, P>0.05",No effects
same,DSS-induced colon shortening,[3]; day 15,reversed
same,protection against NSAID-induced gastric damage,[4],protects against NSAID-induced gastric damage
same,anti-inflammatory effects in the upper gastrointestinal tract,[5],exhibits anti-inflammatory effects
same,ACE2 inhibitor potency and selectivity,ACE2,potent and selective
same,water solubility,Water solubility,excellent
same,water solubility,Water solubility; listed as dicarboxylic acid,limited
"CC(C)C[C@@H](N[C@H](Cc1cncn1Cc1cc(Cl)cc(Cl)c1)C(=O)O)C(=O)O [R,R isomer, 2-[1-(R)-carboxy-2(R)-[3-(3,5-dichloro-benzyl)-3H-imidazol-4-yl]-ethylamino]-4-methylpentanoic acid, reference compound]",IC50,"ACE2; stereoisomers of Compound (I), per Dales et al., read-out: activity of the isomer (ACE2 inhibition)",> 50 µM
CC(C)C[C@H](N[C@@H](Cc1cncn1Cc1cc(Cl)cc(Cl)c1)C(=O)[O-])C(=O)[O-].[Na+].[Na+] [disodium salt anhydrate],stability,[1]; ambient temperatures,"unstable, thermally sensitive, and subject to oxidation at ambient temperatures"
"O=C(O)c1cc(/N=N/c2ccc(S(=O)(=O)Nc3ccccn3)cc2)ccc1O [sulfasalazine, reference compound]",rectal prolapse and bleeding (DAI),"[3]; 150 mg/kg, compared with Compound (I) 300 mg/kg",similarly efficacious
same,DSS-induced colon shortening,[3]; day 15,reversed
same,body weight recovery compared with vehicle+DSS and Compound (I) 300 mg/kg groups,"[3]; sulfasalazine-treated animals, day 15",did not recover to the same extent by day 15
